According to ChEMBL document CHEMBL3882727, “Imidazopyridine Kinase Inhibitors” (2008):
One block for each molecule: values may come before it.

What was measured:
[1] = molecular target: T1, Insulin-like growth factor 1 receptor (Homo sapiens, UniProt P08069); assay: Inhibition of human GST-rTEV-tagged IGF1R (957 to 1367 residues) expressed in baculovirus infected insect Sf9 cells assessed as decrease in biotin-aminohexyl-AEEEEYMMMMAKKKK-NH2 phosphorylation after 1 hr by fluorometer
Insulin receptor [2] = molecular target: T2, Insulin receptor (Homo sapiens, UniProt P06213); assay: Inhibition of human GST-rTEV-tagged insulin receptor (979 to 1382 residues) expressed in baculovirus infected insect Sf9 cells assessed as decrease in biotin-aminohexyl-AEEEEYMMMMAKKKK-NH2 phosphorylation after 1 hr by fluorometer
T2 sequence (P06213 28-758 limits assumed): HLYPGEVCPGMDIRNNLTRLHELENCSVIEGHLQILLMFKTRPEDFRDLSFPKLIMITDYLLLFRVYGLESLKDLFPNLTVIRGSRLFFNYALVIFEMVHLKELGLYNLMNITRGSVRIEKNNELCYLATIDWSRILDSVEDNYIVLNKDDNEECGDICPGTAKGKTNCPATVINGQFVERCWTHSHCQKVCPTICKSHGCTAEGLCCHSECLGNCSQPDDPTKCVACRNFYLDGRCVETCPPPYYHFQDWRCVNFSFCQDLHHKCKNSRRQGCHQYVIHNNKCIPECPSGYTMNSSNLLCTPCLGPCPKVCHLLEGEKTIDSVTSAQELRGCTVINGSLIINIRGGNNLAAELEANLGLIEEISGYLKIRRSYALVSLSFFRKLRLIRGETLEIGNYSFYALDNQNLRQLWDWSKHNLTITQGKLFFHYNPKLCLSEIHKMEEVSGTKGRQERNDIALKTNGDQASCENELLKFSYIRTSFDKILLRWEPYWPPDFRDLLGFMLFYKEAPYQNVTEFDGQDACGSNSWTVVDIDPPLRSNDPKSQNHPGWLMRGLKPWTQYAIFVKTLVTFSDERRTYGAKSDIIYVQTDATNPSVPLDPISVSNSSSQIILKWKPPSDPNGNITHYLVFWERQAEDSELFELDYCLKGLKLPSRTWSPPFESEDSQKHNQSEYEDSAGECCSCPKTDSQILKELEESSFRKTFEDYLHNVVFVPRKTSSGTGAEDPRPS
T2 sequence (P06213 763-1382 limits assumed): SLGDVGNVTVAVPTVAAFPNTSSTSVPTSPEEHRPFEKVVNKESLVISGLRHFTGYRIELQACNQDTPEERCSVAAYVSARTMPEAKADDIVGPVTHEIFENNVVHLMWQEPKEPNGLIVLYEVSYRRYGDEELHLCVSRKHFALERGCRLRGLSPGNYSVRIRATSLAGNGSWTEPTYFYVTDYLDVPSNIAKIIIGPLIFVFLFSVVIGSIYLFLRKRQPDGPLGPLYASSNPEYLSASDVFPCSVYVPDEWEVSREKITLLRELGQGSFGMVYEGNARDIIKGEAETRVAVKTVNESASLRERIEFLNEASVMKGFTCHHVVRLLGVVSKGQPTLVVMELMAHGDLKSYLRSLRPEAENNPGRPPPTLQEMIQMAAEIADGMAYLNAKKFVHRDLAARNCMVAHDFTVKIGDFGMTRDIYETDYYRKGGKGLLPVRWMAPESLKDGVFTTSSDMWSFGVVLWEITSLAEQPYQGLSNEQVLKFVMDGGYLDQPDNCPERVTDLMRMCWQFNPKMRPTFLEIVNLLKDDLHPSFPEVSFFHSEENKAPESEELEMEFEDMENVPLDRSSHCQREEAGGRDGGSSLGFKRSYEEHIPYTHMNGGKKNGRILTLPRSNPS

Insulin receptor [3] = molecular target: T2, Insulin receptor; assay: Inhibition of insulin-induced human insulin receptor autophosphorylation expressed in mouse NIH-3T3 cells preincubated for 2 hrs followed by insulin induction measured after 15 mins by DELFIA; format: cell-based, NIH3T3
[4] = molecular target: T1, Insulin-like growth factor 1 receptor; assay: Inhibition of IGF1-induced human IGF1R autophosphorylation expressed in mouse NIH-3T3 cells preincubated for 2 hrs followed by IGF-1 induction measured after 15 mins by DELFIA; format: cell-based, NIH3T3
[5] = Toxicity in nude mouse allografted with mouse LISN cells assessed as body weight loss at 50 to 100 mg/kg, qd for 21 days measured during compound dosing; format: organism-based; conditions: 504 h
[6] = Toxicity in nude mouse allografted with mouse LISN cells assessed as body weight loss at 30 mg/kg, qd for 21 days measured during compound dosing relative to control; format: organism-based; conditions: in vivo, 504 h
[7] = Toxicity in nude mouse allografted with mouse LISN cells assessed as body weight loss at 60 mg/kg, qd for 21 days measured during compound dosing relative to control; format: organism-based; conditions: in vivo, 504 h
[8] = Cytotoxicity against human RL cells after 3 days by InCell analyser assay; format: functional, cell-based; conditions: 72 h
[9] = Cytotoxicity against human GCT cells after 3 days by InCell analyser assay; format: functional, cell-based; conditions: 72 h
[10] = Cytotoxicity against HOS cells after 3 days by InCell analyser assay; format: functional, cell-based; conditions: Homo sapiens, 72 h
[11] = Cytotoxicity against human MT3 cells after 3 days by InCell analyser assay; format: functional, cell-based; conditions: MT-3, 72 h
[12] = Cytotoxicity against human BC3 cells after 3 days by InCell analyser assay; format: functional, cell-based; conditions: BC-3, 72 h
[13] = Cytotoxicity against human BC2 cells after 3 days by InCell analyser assay; format: functional, cell-based; conditions: BC-2, 72 h
[14] = Cytotoxicity against human SR cells after 3 days by InCell analyser assay; format: functional, cell-based; conditions: 72 h
[15] = Cytotoxicity against human JAR cells after 3 days by InCell analyser assay; format: functional, cell-based; conditions: 72 h
[16] = Cytotoxicity against human ES2 cells after 3 days by InCell analyser assay; format: functional, cell-based; conditions: ES-2, 72 h
[17] = Cytotoxicity against human SH4 cells after 3 days by InCell analyser assay; format: functional, cell-based; conditions: SH-4, 72 h
[18] = Cytotoxicity against human BC1 cells after 3 days by InCell analyser assay; format: functional, cell-based; conditions: BC1, 72 h
[19] = Cytotoxicity against human MC/CAR cells after 3 days by InCell analyser assay; format: functional, cell-based; conditions: 72 h
[20] = Cytotoxicity against human MX1 cells after 3 days by InCell analyser assay; format: functional, cell-based; conditions: MX1, 72 h
[21] = Cytotoxicity against human KLE cells after 3 days by InCell analyser assay; format: functional, cell-based; conditions: 72 h
[22] = Cytotoxicity against human NALM1 cells after 3 days by InCell analyser assay; format: functional, cell-based; conditions: NALM1, 72 h
[23] = Cytotoxicity against human U266B1 cells after 3 days by InCell analyser assay; format: functional, cell-based; conditions: U-266, 72 h
[24] = Cytotoxicity against human SCLC3 cells after 3 days by InCell analyser assay; format: functional, cell-based; conditions: SCLC3, 72 h
[25] = Cytotoxicity against human J82 cells after 3 days by InCell analyser assay; format: functional, cell-based; conditions: J82, 72 h
[26] = Cytotoxicity against human DK-MG cells after 3 days by InCell analyser assay; format: functional, cell-based; conditions: 72 h
[27] = Cytotoxicity against human MJ cells after 3 days by InCell analyser assay; format: functional, cell-based; conditions: 72 h
[28] = Cytotoxicity against human AGS cells after 3 days by InCell analyser assay; format: functional, cell-based; conditions: 72 h
[29] = Cytotoxicity against human A7 cells after 3 days by InCell analyser assay; format: functional, cell-based; conditions: 72 h
[30] = Cytotoxicity against human C3A cells after 3 days by InCell analyser assay; format: functional, cell-based; conditions: 72 h
[31] = Cytotoxicity against human DB cells after 3 days by InCell analyser assay; format: functional, cell-based; conditions: 72 h
[32] = Cytotoxicity against human M14 cells after 3 days by InCell analyser assay; format: functional, cell-based; conditions: M14, 72 h
[33] = Cytotoxicity against human HN5 cells after 3 days by InCell analyser assay; format: functional, cell-based; conditions: HN5, 72 h
[34] = Cytotoxicity against human C-4I cells after 3 days by InCell analyser assay; format: functional, cell-based; conditions: 72 h
[35] = Cytotoxicity against human H4 cells after 3 days by InCell analyser assay; format: functional, cell-based; conditions: H4, 72 h
[36] = Cytotoxicity against human 5637 cells after 3 days by InCell analyser assay; format: functional, cell-based; conditions: Homo sapiens, 5637, 72 h
[37] = Cytotoxicity against human CESS cells after 3 days by InCell analyser assay; format: functional, cell-based; conditions: 72 h
[38] = Cytotoxicity against human HT3 cells after 3 days by InCell analyser assay; format: functional, cell-based; conditions: HT-3, 72 h
[39] = Cytotoxicity against human T24 cells after 3 days by InCell analyser assay; format: functional, cell-based; conditions: T-24, 72 h
[40] = Cytotoxicity against human EM2 cells after 3 days by InCell analyser assay; format: functional, cell-based; conditions: EM-2, 72 h
[41] = Cytotoxicity against human ML2 cells after 3 days by InCell analyser assay; format: functional, cell-based; conditions: ML-2, 72 h
[42] = Cytotoxicity against human Y79 cells after 3 days by InCell analyser assay; format: functional, cell-based; conditions: Y79, 72 h
[43] = Cytotoxicity against human RD cells after 3 days by InCell analyser assay; format: functional, cell-based; conditions: 72 h
[44] = Toxicity in nude mouse allografted with mouse LISN cells assessed as body weight loss at 30 to 300 mg/kg, qd for 21 days measured during compound dosing; format: organism-based; conditions: 504 h

IC50 [1]: < 0.1 µM | IC50 (Insulin receptor [2]): < 0.1 µM
SMILES: COc1cc(C2CCN(CCS(C)(=O)=O)CC2)ccc1Nc1nccc(-c2c(-c3ccc(OC)c(C(=O)Nc4c(F)cccc4F)c3)nc3ccccn23)n1

IC50 [1]: < 0.1 µM | IC50 (Insulin receptor [2]): < 0.1 µM | IC50 (Insulin receptor [3]): < 0.1 µM
SMILES: CCOc1cc(N2CCN(CCS(C)(=O)=O)CC2)c(C)cc1Nc1nccc(-c2c(-c3ccc(OC)c(C(=O)Nc4c(F)cccc4F)c3)nc3ccccn23)n1

IC50 [1]: 0.1 to 1 µM | IC50 (Insulin receptor [2]): 0.1 to 1 µM | IC50 [4]: < 0.1 µM
SMILES: CCOc1cc(C2CCN(CCS(C)(=O)=O)CC2)ccc1Nc1nccc(-c2c(-c3ccc(OC(C)C)c(C(=O)Nc4c(F)cccc4F)c3)nc3ccccn23)n1

IC50 [1]: < 0.1 µM | IC50 (Insulin receptor [2]): < 0.1 µM | IC50 (Insulin receptor [3]): < 0.1 µM
SMILES: COc1cc(N2CCC(CCS(C)(=O)=O)CC2)c(C)cc1Nc1nccc(-c2c(-c3ccc(OC)c(C(=O)Nc4c(F)cccc4F)c3)nc3cc(F)ccn23)n1

IC50 (Insulin receptor [2]): < 0.1 µM
SMILES: CN(C)CCOc1cccc(Nc2nccc(-c3c(-c4cccc(C(=O)Nc5c(F)cc(F)cc5F)c4)nc4ccccn34)n2)c1

SMILES: CCOc1cc(N2CCC(CCS(C)(=O)=O)CC2)c(C)cc1Nc1nccc(-c2c(-c3ccc(OC)c(C(=O)Nc4c(F)cccc4F)c3)nc3ccccn23)n1
Activity [5]: Non-Toxic

IC50 [1]: 0.1 to 1 µM | IC50 (Insulin receptor [2]): 0.1 to 1 µM | IC50 [4]: < 0.1 µM
SMILES: CCOc1cc(N2CCC(N3CCN(S(C)(=O)=O)CC3)CC2)c(CC)cc1Nc1nccc(-c2c(-c3ccc(OCC)c(C(=O)Nc4c(F)cccc4F)c3)nc3ccccn23)n1

SMILES: CCc1cc(Nc2nccc(-c3c(-c4ccc(OC)c(C(=O)Nc5c(F)cccc5F)c4)nc4ccccn34)n2)c(OC)cc1N1CCC(N2CCN(S(C)(=O)=O)CC2)CC1
Activity [6]: Non-Toxic | Activity [7]: Non-Toxic

SMILES: COc1cc(N2CCC(N3CCCCC3)CC2)ccc1Nc1nccc(-c2c(-c3cccc(C(=O)Nc4c(F)cccc4F)c3)nc3ccccn23)n1
IC50 [8]: 1 to 5 µM | IC50 [9]: 1 to 5 µM | IC50 [10]: < 1 µM | IC50 [11]: < 1 µM | IC50 [12]: 1 to 5 µM | IC50 [13]: 1 to 5 µM | IC50 [14]: 1 to 5 µM | IC50 [15]: 1 to 5 µM | IC50 [16]: 1 to 5 µM | IC50 [17]: 1 to 5 µM | IC50 [18]: 1 to 5 µM | IC50 [19]: 1 to 5 µM | IC50 [20]: 1 to 5 µM | IC50 [21]: 1 to 5 µM | IC50 [22]: 1 to 5 µM | IC50 [23]: 1 to 5 µM | IC50 [24]: 1 to 5 µM | IC50 [25]: 1 to 5 µM | IC50 [26]: 1 to 5 µM | IC50 [27]: 1 to 5 µM | IC50 [28]: 1 to 5 µM | IC50 [29]: 1 to 5 µM | IC50 [30]: 1 to 5 µM | IC50 [31]: 1 to 5 µM | IC50 [32]: 1 to 5 µM | IC50 [33]: 1 to 5 µM | IC50 [34]: 1 to 5 µM | IC50 [35]: > 5 µM | IC50 [36]: > 5 µM | IC50 [37]: > 5 µM | IC50 [38]: > 5 µM | IC50 [39]: > 5 µM | IC50 [40]: > 5 µM | IC50 [41]: > 5 µM | IC50 [42]: > 5 µM | IC50 [43]: > 5 µM

SMILES: COc1cc(N2CCC(N3CCN(S(C)(=O)=O)CC3)CC2)ccc1Nc1nccc(-c2c(-c3cccc(C(=O)Nc4c(F)cccc4F)c3)nc3ccccn23)n1
Activity [44]: Non-Toxic
